# Results published in patent US11191811B2, “Osteocalcin as a treatment for frailty associated with aging” (THE TRUSTEES OF COLUMBIA UNIVERSITY IN THE CITY OF NEW YORK, priority 2014, dated 2021).
# How the values were obtained:
# muscle = assay: S6K phosphorylation and protein synthesis; settings: FIG. 23; for protein synthesis: in muscle
# Text: FIG. 23. Osteocalcin promotes S6K phosphorylation and protein synthesis.
# It has been shown that in muscle osteocalcin favors glucose uptake, glycolysis, fatty acid oxidation, and protein synthesis.
# WT myotubes = assay: Gene expression (qPCR) in myotubes treated with Ocn; assay type: cell-based, mouse
# Procedure: FIG. 28. Osteocalcin signaling in myofibers favors uptake and oxidation of fatty acids. (A-B) Acylcarnitine levels in muscles and plasma of Gprc6af/f and Gprc6aMck−/− mice, at rest and after a single bout of exercise (n=4-6 per group). (C) OCR in myofibers cultured in KHR buffer containing 3 mM oleic acid. (D) ATP accumulations in muscles of Gprc6af/f and Gprc6aMck−/− mice after a single bout of exercise (n=6 per group). (E) Western blot analysis of HSL phosphorylation (Ser563) in muscles of Gprc6af/f and Gprc6aMck−/− mice after a single bout of exercise. (F-G) Cd36, Fatp1 and Cpt1b expression in WT and Gprc6a−/− myotubes or WT myotubes treated with Ocn (10 ng/ml). (H) Fatp1 expression in muscles of Gprc6af/f; Gprc6aMck−/− and Ocn+/−; Gprc6aMck+/− mice, at rest and after a single bout of exercise (n=4-6 per group). (I) Western blot analysis of FATP1 in muscle of Gprc6af/f and Gprc6aMck−/− mice after exercise. (J) Cd36, Fatp1 and Cpt1b expression in muscles of Creb f/f and CrebMck−/− mice after a single bout of exercise. (K) Western blot analysis of CREB phosphorylation (Ser133) in muscles of Gprc6af/f and Gprc6aMck−/− mice after a single bout of exercise. (L) Performance during endurance exercise of 3 month-old Gprc6aMck+/−; CrebMck+/−, CrebMck+/− and control mice (n=8-13 per group).
# Serum osteocalcin, PINP, CTX, and insulin levels were measured using ELISA assays. Blood glucose level was measured using an Accu-Check glucometer. Urine 3-MHT was measured as previously described (Aranibar et al., 2011, Anal. Biochem. 410:84-91). Determination of cAMP accumulation was performed using a commercial kit (R&D). For gene expression, 1 μg of total RNA was reverse transcribed into cDNA. qPCR analyses were performed using a SYBER green master mix (Applied Biosciences) and a CFX-Connect real time PCR (Bio-Rad). Relative expression levels of each gene were normalized to that of Hprt or Gapdh. For in situ hybridization, muscle was frozen in liquid N2-cooled methylbutane. Samples were sectioned at 10 μm using a cryostat. […]
# Osteocalcin−/− mice = assay: Behavioral tests of Osteocalcin−/− mice with ICV infusion (DLT, EPMT, OFT, FST, TST); assay type: in vivo, mouse; settings: for anxiety / depression: ICV infusion 10 ng/hour, week-long, Osteocalcin−/− mice
# Procedure: FIG. 12. Administration of osteocalcin alleviates anxiety and depression. (A-E) Behavioral analyses of adult Osteocalcin^−/− mice receiving recombinant uncarboxylated osteocalcin through intracerebro-ventricular (ICV) infusions. (A) Light and Dark test, (B) Elevated plus maze test, (C) Open field test, (D) Forced swim test, and (E) Tail suspension test performed in a cohort of WT (n=7) and Osteocalcin^−/− infused with vehicle or recombinant uncarboxylated osteocalcin (10 ng/hour). In each set of three bars, the rightmost bar represents the results following administration of osteocalcin.
# For osteocalcin delivery to pregnant mice, IP injections (240 ng/day) were performed as soon as a plug was present daily until delivery (E0.5-E18.5). For osteocalcin or leptin infusion in adult Osteocalcin^−/− or ob/ob mice, pumps (Alzet micro-osmotic pump, Model 1002) delivering osteocalcin (300 ng/hr), leptin (50 ng/hr), or vehicle were surgically installed subcutaneously in the backs of 3-month old mice. For the postnatal rescue of cognitive functions in Osteocalcin^−/− mice, osteocalcin (10 ng/hour) or vehicle were delivered intrasubventricularly (icv) as previously described (Ducy et al., 2000, Cell 100:197-207). Leptin and osteocalcin content in sera and tissues were determined by ELISA.
# Tail suspension testing was performed as previously described (Mayorga et al., 2001, J. Pharmacology Exper. Therapeutics 298:1101-1107; Steru et al., 1985, Psychopharmacology 85:367-370). Mice were transported a short distance from the holding facility to the testing room and left there undisturbed for at least 1 hour. Mice were individually suspended by the tail (distance from floor was 35 cm) using adhesive tape (distance from tip of tail was 2 cm). […] The parameter recorded was the number of seconds spent immobile. Mice were scored by a highly trained observer, over a 5 min period, blind to the genotype of the mice.
# Anxiety and locomotor activity of mice were measured using the open field test (David et al., 2009, Neuron 62:479-493). Each animal was placed in a 43×43 cm open field chamber, and tested for 30 min. Mice were monitored throughout each test session by video tracking and analyzed using Matlab software. Mice were placed individually into the center of the open-field arena and allowed to explore freely. The overall motor activity was quantified as the total distance travelled. The anxiety was quantified measuring the number of rearings and the time and distance spent in the center versus periphery of the open field chamber (in %).
# Each mouse was allowed to explore the apparatus for 5 min. Global activity was assessed by measuring the number of entries […] (David et al, 2009, Neuron 62:479-493). Anxiety was assessed by comparing the time spent in the open arms.
# The forced swimming test was carried out according to the method described by David et al., 2009, Neuron 62:479-493. Briefly, mice were dropped individually into glass cylinders (height: 25 cm, diameter: 10 cm) containing 10 cm water height., maintained at 23-25° C. Animals were tested for a total of 6 min. The total duration of immobility time was recorded. Mice were considered immobile when they made no attempts to escape with the exception of the movements necessary to keep their heads above the water. Mice were scored by an observer blind to their genotypes.
# The test was performed in a quiet, darkened room. Mice were individually housed in cages containing a handful of bedding from their home cage and acclimated to the room at least 1 h before the test. Naïve mice were placed individually in the testing chamber in the dark compartment. The test was 5 min in duration, and time spent and number of entries in light compartments were recorded a highly trained observer, blind to the genotype of the mice. […]
# [1] = listed as undercarboxylated/uncarboxylated osteocalcin
substance,measurement,setting,value
"uncarboxylated osteocalcin: Recombinant uncarboxylated mouse osteocalcin, bacterially produced, purified on glutathione beads and cleaved from the GST subunit by thrombin (YLGASVPSPDPLEPTREQCELNPACDELSDQYGLKTAYKRIYGITI)",S6K phosphorylation,muscle,promotes
same,protein synthesis,muscle; listed as Osteocalcin,promotes
same,protein synthesis,muscle; listed as osteocalcin,favors
same,expression of Il6,WT myotubes,increased
same,expression of Cpt1b,WT myotubes; Ocn 10 ng/ml,increased
same,expression of Fatp1,WT myotubes; Ocn 10 ng/ml,increased
same,anxiety,Osteocalcin−/− mice,corrected
same,depression,Osteocalcin−/− mice,corrected
same,anxiety,Osteocalcin−/− mice; listed as osteocalcin,alleviates
same,depression,Osteocalcin−/− mice; listed as osteocalcin,alleviates
same,anxiety,Osteocalcin−/− mice; [1],rescued
same,depression,Osteocalcin−/− mice; [1],rescued
same,learning and memory,Osteocalcin−/− mice; direct administration to the brains of adult Osteocalcin−/− mice,rescued
